Reference: patent US20220064167A1, “IMIDAZO-PYRAZOLE CARBOXAMIDE DERIVATIVES AS ANTICANCER AGENTS AND THE SYNTHESIS THEREOF” (AVIDIN KFT., priority 2018, published 2022)

Tested on: HL60 human acute myeloid leukaemia cells in SCID immune-deficient mouse
Assay: leukaemia mouse model (FIG. 7)
Type: in vivo
Details: 3 mg/kg intravenously, 10 occasions
Experimental: The effect on leukaemia was studied on SCID immune-deficient mouse model inoculated intravenously with HL60 human acute myeloid leukaemia cells (ATCC) (1 million cells/animal). Two groups were formed from randomly selected mice, with 9 animals in each group. Group1: control group, it was only administered a carrier (0.1 mL, 0.9% NaCl solution) intravenously; group 2: group treated with compound 60, it was administered 3 mg/kg of compound 60 in PEG100:Solutol:PBS (1:4:15 vol ratio), intravenously.
The treatments were performed from the third day, on five consecutive occasions per week, for 2 weeks, on a total of 10 occasions. As time went on, every day we determined the number of surviving animals and represented it in percentage per group as compared to the total initial number of animals (FIG. 7). It can be seen that the 3 mg/kg dose of compound 60 administered intravenously was effective, the treatment with compound 60 increased the LD50 (from day 26 to day 42) and the survival rate of the animals.

Which results are given for `CC(C)(C)Nc1c(C(C)(C)C)[nH]c2c(C(=O)Nc3ccc(F)cc3)cnn12` [Example 60, 2-(Tert-butyl)-N-(4-fluorophenyl)-3-((tert-butyl-2-yl)amino)-1H-imidazo[1,2-b]pyrazole-7-carboxamide]?
survival rate of the animals: increased; median survival time (control day 26): 42 days
